Measured values reported in ChEMBL document CHEMBL2010662, “Discovery of oxazole-based PDE4 inhibitors with picomolar potency” (Bioorg Med Chem Lett, 2012).

Tests used:
[1] = biological target: 3',5'-cyclic-AMP phosphodiesterase 4B (Homo sapiens, UniProt Q07343); test: Inhibition of PDE4B
[2] = Inhibition of PDE10
[3] = biological target: Dual 3',5'-cyclic-AMP and -GMP phosphodiesterase 11A (Homo sapiens, UniProt Q9HCR9); test: Inhibition of PDE11
[4] = biological target: 3',5'-cyclic-AMP phosphodiesterase 4D (Homo sapiens, UniProt Q08499); test: Inhibition of PDE4D
[5] = Inhibition of PDE4-mediated TNF-alpha release by cell based assay
[6] = Cmax in rat at 10 mg/kg, po; format: ADME, organism-based; parameters: dose 10 mg/kg, route oral; details: in vivo
[7] = Oral bioavailability in rat at 10 mg/kg; format: ADME, organism-based; details: in vivo
Rattus norvegicus = test: Antiinflammatory activity in po dosed rat assessed as inhibition of LPS-induced pulmonary inflammation; format: functional
Cytochrome P450 3A4 = Cytochrome P450 3A4 (Homo sapiens, UniProt P08684); test: Inhibition of CYP3A4; format: ADME
Cytochrome P450 2D6 = Cytochrome P450 2D6 (Homo sapiens, UniProt P10635); test: Inhibition of CYP2D6; format: ADME
Cytochrome P450 2C9 = Cytochrome P450 2C9 (Homo sapiens, UniProt P11712); test: Inhibition of CYP2C9; format: ADME
Cytochrome P450 2C19 = Cytochrome P450 2C19 (Homo sapiens, UniProt P33261); test: Inhibition of CYP2C19; format: ADME
Cytochrome P450 2C19, sequence (P33261 whole entry): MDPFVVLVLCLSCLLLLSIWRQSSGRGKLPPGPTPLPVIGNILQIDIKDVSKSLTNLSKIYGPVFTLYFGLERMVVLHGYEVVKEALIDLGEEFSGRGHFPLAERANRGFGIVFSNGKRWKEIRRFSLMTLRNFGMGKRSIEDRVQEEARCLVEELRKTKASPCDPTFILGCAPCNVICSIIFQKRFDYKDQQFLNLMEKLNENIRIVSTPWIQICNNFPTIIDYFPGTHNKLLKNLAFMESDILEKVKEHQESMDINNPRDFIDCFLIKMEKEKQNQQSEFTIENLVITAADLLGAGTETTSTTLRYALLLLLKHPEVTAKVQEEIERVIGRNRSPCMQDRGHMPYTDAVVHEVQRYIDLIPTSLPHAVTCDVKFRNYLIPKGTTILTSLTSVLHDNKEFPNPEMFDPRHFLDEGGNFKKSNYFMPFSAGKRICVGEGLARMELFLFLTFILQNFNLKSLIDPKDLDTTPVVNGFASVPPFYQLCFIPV

3',5'-cyclic-AMP phosphodiesterase 4B, sequence (Q07343 whole entry): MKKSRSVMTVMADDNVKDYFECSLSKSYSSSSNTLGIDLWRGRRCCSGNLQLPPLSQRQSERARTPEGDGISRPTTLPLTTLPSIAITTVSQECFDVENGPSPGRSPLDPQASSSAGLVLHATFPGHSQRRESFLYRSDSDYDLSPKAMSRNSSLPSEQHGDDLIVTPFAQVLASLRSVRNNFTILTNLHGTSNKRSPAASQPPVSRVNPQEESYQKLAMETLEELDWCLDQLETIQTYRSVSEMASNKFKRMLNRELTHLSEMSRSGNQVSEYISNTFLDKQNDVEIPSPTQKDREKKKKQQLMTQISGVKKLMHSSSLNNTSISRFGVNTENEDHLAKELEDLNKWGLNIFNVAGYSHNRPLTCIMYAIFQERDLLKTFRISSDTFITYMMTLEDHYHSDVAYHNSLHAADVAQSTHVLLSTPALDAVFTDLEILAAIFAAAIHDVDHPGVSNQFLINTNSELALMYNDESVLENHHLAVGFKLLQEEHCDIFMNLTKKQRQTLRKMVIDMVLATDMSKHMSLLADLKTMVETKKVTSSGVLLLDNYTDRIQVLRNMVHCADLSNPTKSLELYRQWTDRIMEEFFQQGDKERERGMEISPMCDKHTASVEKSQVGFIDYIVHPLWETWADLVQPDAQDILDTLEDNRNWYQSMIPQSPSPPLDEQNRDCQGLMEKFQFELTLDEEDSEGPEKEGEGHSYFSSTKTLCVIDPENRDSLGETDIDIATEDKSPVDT
Dual 3',5'-cyclic-AMP and -GMP phosphodiesterase 11A, sequence (Q9HCR9 whole entry): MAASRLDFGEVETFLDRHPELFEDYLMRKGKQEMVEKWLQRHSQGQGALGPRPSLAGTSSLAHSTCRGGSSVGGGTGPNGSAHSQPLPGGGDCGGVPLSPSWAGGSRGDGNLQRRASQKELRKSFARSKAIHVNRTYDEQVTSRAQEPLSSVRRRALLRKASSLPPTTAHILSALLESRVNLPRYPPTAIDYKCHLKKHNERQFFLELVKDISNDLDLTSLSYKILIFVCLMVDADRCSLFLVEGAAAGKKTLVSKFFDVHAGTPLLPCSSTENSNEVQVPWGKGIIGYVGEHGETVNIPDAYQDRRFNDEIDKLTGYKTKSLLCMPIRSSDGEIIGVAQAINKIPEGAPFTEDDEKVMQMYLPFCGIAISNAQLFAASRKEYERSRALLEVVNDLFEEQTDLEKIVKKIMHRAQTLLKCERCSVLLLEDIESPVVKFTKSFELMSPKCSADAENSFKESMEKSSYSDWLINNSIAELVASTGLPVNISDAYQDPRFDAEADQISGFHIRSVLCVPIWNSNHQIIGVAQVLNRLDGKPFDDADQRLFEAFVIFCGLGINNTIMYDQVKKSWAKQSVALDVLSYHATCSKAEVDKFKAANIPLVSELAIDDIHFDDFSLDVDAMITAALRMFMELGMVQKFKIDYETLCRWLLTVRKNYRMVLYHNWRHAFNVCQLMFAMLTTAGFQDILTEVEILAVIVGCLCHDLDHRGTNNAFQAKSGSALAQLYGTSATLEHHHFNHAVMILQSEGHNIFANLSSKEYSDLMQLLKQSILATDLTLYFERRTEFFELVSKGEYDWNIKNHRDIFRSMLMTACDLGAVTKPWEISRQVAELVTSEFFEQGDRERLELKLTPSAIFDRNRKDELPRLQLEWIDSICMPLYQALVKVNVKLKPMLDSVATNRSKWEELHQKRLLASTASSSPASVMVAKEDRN
Cytochrome P450 2D6, sequence (P10635 whole entry): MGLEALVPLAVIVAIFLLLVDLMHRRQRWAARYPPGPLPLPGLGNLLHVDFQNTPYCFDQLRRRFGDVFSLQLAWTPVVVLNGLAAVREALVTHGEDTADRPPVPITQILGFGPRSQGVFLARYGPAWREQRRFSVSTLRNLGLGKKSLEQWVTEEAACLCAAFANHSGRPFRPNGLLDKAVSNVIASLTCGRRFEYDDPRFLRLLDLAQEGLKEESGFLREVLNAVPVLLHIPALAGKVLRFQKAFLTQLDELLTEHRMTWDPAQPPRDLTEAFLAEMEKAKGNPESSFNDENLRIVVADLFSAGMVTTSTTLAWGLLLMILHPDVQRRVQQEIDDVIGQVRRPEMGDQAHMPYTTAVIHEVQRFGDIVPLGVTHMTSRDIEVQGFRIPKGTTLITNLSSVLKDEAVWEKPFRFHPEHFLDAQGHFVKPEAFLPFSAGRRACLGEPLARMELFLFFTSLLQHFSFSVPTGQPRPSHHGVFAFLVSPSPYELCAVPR
Cytochrome P450 2C9, sequence (P11712 whole entry): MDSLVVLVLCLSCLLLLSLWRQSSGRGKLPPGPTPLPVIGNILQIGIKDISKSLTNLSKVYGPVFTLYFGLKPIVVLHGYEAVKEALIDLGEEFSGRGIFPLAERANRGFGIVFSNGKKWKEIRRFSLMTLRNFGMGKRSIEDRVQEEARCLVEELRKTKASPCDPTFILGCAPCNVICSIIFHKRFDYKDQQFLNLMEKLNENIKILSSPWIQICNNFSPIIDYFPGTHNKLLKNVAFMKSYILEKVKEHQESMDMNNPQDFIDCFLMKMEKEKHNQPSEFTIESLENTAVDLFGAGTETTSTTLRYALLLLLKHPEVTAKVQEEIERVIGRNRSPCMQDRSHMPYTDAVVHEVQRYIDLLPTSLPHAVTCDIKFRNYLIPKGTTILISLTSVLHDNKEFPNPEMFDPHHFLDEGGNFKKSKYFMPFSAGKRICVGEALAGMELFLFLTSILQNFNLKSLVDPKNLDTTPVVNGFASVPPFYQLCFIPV
3',5'-cyclic-AMP phosphodiesterase 4D, sequence (Q08499 whole entry): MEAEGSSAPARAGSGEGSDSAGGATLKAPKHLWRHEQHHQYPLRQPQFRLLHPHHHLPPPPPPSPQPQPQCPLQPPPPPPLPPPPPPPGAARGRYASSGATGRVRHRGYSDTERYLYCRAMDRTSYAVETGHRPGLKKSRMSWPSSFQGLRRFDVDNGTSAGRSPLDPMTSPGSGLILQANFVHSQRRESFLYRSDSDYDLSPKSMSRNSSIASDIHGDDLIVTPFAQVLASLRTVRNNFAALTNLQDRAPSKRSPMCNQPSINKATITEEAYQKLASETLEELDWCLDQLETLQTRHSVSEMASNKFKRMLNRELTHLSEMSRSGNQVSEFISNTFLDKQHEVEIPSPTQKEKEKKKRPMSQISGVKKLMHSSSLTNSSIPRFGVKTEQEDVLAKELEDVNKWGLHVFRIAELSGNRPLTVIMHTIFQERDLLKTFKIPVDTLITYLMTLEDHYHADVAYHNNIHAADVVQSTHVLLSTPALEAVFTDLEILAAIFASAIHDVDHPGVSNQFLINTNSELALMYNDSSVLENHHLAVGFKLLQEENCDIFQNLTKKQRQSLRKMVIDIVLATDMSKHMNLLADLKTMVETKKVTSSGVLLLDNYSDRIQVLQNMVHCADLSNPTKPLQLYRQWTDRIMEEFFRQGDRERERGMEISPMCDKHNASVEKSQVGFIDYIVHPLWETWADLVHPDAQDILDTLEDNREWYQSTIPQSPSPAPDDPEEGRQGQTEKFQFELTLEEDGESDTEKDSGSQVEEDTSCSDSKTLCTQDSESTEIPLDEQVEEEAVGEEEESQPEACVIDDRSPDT
Cytochrome P450 3A4, sequence (P08684 whole entry): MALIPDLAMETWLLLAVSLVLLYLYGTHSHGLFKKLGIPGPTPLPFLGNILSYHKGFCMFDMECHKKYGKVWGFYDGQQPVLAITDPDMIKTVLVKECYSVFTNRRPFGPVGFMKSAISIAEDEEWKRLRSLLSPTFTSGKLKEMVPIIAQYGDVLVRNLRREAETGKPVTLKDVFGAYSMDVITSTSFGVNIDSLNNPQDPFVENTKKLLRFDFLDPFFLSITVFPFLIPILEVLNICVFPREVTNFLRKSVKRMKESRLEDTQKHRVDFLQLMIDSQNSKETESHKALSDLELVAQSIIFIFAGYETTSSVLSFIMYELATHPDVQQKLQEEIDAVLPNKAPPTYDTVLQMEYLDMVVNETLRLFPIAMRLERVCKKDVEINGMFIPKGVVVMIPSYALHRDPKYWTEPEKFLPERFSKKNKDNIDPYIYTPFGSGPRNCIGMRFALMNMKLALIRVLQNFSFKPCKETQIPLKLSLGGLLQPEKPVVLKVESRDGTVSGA

| SMILES | IC50 [1] | IC50 [2] | IC50 [3] | other results |
| --- | --- | --- | --- | --- |
| COc1ccc(-c2nc(C(=O)NCc3ccccc3)c(CN)o2)c2ccc(C(F)(F)F)nc12 | 3.7 nM | 1200 nM | 4800 nM | – |
| COc1ccc(-c2nc(C(=O)NCc3ccc(F)cc3)c(CN)o2)c2ccc(C(F)(F)F)nc12 | 4.1 nM | 1300 nM | 2700 nM | – |
| COc1ccc(-c2nc(C(=O)NCc3ccc(Cl)cc3)c(CN)o2)c2ccc(C(F)(F)F)nc12 | 3.4 nM | 2100 nM | 2700 nM | – |
| COc1ccc(-c2nc(C(=O)NCc3ccc(C#N)cc3)c(CN)o2)c2ccc(C(F)(F)F)nc12 | 26 nM | – | – | – |
| COc1ccc(-c2nc(C(=O)NCc3ccc(S(C)(=O)=O)cc3)c(CN)o2)c2ccc(C(F)(F)F)nc12 | 37 nM | – | – | – |
| COc1ccc(-c2nc(C(=O)NCc3cccc(F)c3)c(CN)o2)c2ccc(C(F)(F)F)nc12 | 1.8 nM | 810 nM | 3900 nM | – |
| COc1ccc(-c2nc(C(=O)NCc3cccc(Cl)c3)c(CN)o2)c2ccc(C(F)(F)F)nc12 | 1.5 nM | 770 nM | 2100 nM | – |
| COc1ccc(-c2nc(C(=O)NCc3ccccc3F)c(CN)o2)c2ccc(C(F)(F)F)nc12 | 0.9 nM | 500 nM | 3600 nM | – |
| COc1ccc(-c2nc(C(=O)NCc3ccccc3Cl)c(CN)o2)c2ccc(C(F)(F)F)nc12 | 1.2 nM | 610 nM | 2300 nM | – |
| COc1ccccc1CNC(=O)c1nc(-c2ccc(OC)c3nc(C(F)(F)F)ccc23)oc1CN | 0.5 nM | 320 nM | 870 nM | – |
| COc1ccc(-c2nc(C(=O)NCc3c(F)cccc3F)c(CN)o2)c2ccc(C(F)(F)F)nc12 | 0.46 nM | 240 nM | 2500 nM | – |
| COc1ccc(-c2nc(C(=O)NCc3c(F)cccc3Cl)c(CN)o2)c2ccc(C(F)(F)F)nc12 | 0.1 nM | 410 nM | 1300 nM | – |
| COc1ccc(-c2nc(C(=O)NCc3ccc(F)cc3F)c(CN)o2)c2ccc(C(F)(F)F)nc12 | 0.6 nM | 1000 nM | 2200 nM | IC50 [4]: 0.7 nM |
| COc1ccc(-c2nc(C(=O)NCc3ccc(Cl)cc3F)c(CN)o2)c2ccc(C(F)(F)F)nc12 | 2.7 nM | 2200 nM | 2700 nM | – |
| COc1ccc(-c2nc(C(=O)NCc3ccc(Cl)cc3Cl)c(CN)o2)c2ccc(C(F)(F)F)nc12 | 4.3 nM | 1300 nM | 1100 nM | – |
| COc1ccc(-c2nc(C(=O)NCc3ccc(F)c(F)c3)c(CN)o2)c2ccc(C(F)(F)F)nc12 | 2.6 nM | 1300 nM | 2200 nM | – |

| SMILES | IC50 [1] | IC50 [2] | IC50 [3] | other results |
| --- | --- | --- | --- | --- |
| COc1ccc(-c2nc(C(=O)NCc3ccc(Cl)cc3)c([C@H](C)N)o2)c2ccc(C(F)(F)F)nc12 | 0.35 nM | 650 nM | 1100 nM | – |
| COc1ccc(-c2nc(C(=O)NCc3cccc(F)c3)c([C@H](C)N)o2)c2ccc(C(F)(F)F)nc12 | 0.3 nM | 160 nM | 1400 nM | – |
| COc1ccc(-c2nc(C(=O)NCc3ccccc3F)c([C@H](C)N)o2)c2ccc(C(F)(F)F)nc12 | 0.3 nM | 80 nM | 1100 nM | – |
| COc1ccc(-c2nc(C(=O)NCc3c(F)cccc3F)c([C@H](C)N)o2)c2ccc(C(F)(F)F)nc12 | 0.05 nM | 125 nM | 1400 nM | – |
| COc1ccc(-c2nc(C(=O)NCc3c(F)cccc3Cl)c([C@H](C)N)o2)c2ccc(C(F)(F)F)nc12 | 0.03 nM | 120 nM | 1600 nM | – |
| COc1ccc(-c2nc(C(=O)NCc3ccc(F)cc3F)c([C@H](C)N)o2)c2ccc(C(F)(F)F)nc12 | 0.06 nM | 950 nM | 2300 nM | IC50 [5]: 0.6 nM; Cmax [6]: 960 nM; bioavailability [7]: 24%; ED50 (Rattus norvegicus): 0.1 mg/kg; IC50 (Cytochrome P450 3A4): > 8000 nM; IC50 (Cytochrome P450 2D6): > 8000 nM; IC50 (Cytochrome P450 2C9): > 8000 nM; IC50 (Cytochrome P450 2C19): > 8000 nM |
| COc1ccc(-c2nc(C(=O)NCc3ccc(Cl)cc3F)c([C@H](C)N)o2)c2ccc(C(F)(F)F)nc12 | 0.7 nM | 700 nM | 1100 nM | – |
| COc1ccc(-c2nc(C(=O)NCc3ccc(Cl)cc3Cl)c([C@H](C)N)o2)c2ccc(C(F)(F)F)nc12 | 0.7 nM | 1700 nM | 1800 nM | – |
| COc1ccc(-c2nc(C(=O)NCc3ccc(F)c(F)c3)c([C@H](C)N)o2)c2ccc(C(F)(F)F)nc12 | 0.6 nM | 1400 nM | 2000 nM | – |
| COc1ccc(-c2nc(C(=O)NCc3c(F)cc(F)cc3F)c([C@H](C)N)o2)c2ccc(C(F)(F)F)nc12 | 0.04 nM | 500 nM | 3400 nM | – |
| CC[C@H](N)c1oc(-c2ccc(OC)c3nc(C(F)(F)F)ccc23)nc1C(=O)NCc1ccc(Cl)cc1 | 0.81 nM | – | – | – |
| COc1ccc(-c2nc(C(=O)NCc3ccc(Cl)cc3)c([C@@H](N)CO)o2)c2ccc(C(F)(F)F)nc12 | 12.7 nM | – | – | – |
| COc1ccc(-c2nc(C(=O)NCc3ccc(F)cc3F)c([C@@H](N)C(C)C)o2)c2ccc(C(F)(F)F)nc12 | 0.36 nM | – | – | – |
| COc1ccc(-c2nc(C(=O)N[C@H](CO)c3ccccc3)c(CN)o2)c2ccc(C(F)(F)F)nc12 | 1.6 nM | – | – | – |
| COc1ccc(-c2nc(C(=O)N[C@H](CO)c3ccccc3)c([C@H](C)N)o2)c2ccc(C(F)(F)F)nc12 | 0.11 nM | – | – | – |
| COc1ccc(-c2nc(C(=O)N[C@H](CO)c3ccccc3)c([C@@H](C)N)o2)c2ccc(C(F)(F)F)nc12 | 8.4 nM | – | – | – |
